# Data as given in PMC6085299 (Nature Communications, 2018).
# Legend:
# [1] = molecular target: Pin1 (Homo sapiens, UniProt Q13526, M130I); experiment: PPIase assay (Supplementary Fig. 2e); assay type: biochemical
# [2] = molecular target: T1, Pin1 (Homo sapiens, UniProt Q13526); experiment: biotin-ATO pulldown with immunoblot, dose-dependent, competed by ATO; assay type: binding
# T1 construct: recombinant Pin1
Molecule,PPIase assay (Supplementary Fig. 2e) [1],Kd [2] [nM]
"O=[As]O[As]=O (centres unmarked) [ATO, Arsenic trioxide]","ATO dose-dependently inhibited the PPIase activity of Pin1 M130I, but not Pin1 M130V mutant",
biotin-ATO,,238
